Data as given in patent publication US20230257351A1, “SUBSTITUTED N-[…] HAVING P2X4 RECEPTOR ANTAGONISTIC ACTIVITY” (Bayer Aktiengesellschaft, priority 2020, published 2023).

Experiments:
[1] = molecular target: T1, rat P2X4 (Rattus norvegicus, UniProt P51577); test: FLIPR Method for Rat P2X4 1321N1 Astrocytoma Cells; assay type: cell-based; details: 1321N1 stably expressing rat P2X4; agonist MgATP 5 μM (EC80)
T1 construct: expressed in transfected cells
T1 sequence (P51577 1-388): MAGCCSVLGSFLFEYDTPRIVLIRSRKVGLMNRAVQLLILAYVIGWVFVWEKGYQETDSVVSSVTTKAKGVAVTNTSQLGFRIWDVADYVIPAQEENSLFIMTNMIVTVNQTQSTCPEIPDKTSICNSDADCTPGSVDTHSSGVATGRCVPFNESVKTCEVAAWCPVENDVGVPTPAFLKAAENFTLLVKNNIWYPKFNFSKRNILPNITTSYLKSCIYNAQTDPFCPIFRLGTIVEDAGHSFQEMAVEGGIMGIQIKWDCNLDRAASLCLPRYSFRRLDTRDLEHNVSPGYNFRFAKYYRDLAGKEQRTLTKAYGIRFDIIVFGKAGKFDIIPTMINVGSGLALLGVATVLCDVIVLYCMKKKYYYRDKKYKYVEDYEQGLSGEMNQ
Method in brief: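 1321N1 cells stably expressing rat P2X4, Fluo8-AM loaded; compounds (25 μM to 1 nM final, ten concentrations) preincubated 30 min at room temperature, then MgATP added at 5 μM (EC80). Calcium fluorescence read on FLIPR before and after agonist; triplicate data normalized to agonist control, four-parameter fit gives IC50.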

[2] = test system: intraplantar Complete Freund's Adjuvant (CFA)-induced acute inflammatory pain; test: CFA Inflammation Model in Rats with Pain Behaviour Read Out; assay type: in vivo, male Sprague Dawley rats; details: for PWT 2 hour-post drug / PWT 4 hour-post drug: mean PWT
Protocol: Compound was tested in the model of intraplantar Complete Freund's Adjuvant (CFA)-induced acute (48-hours setting) inflammatory pain in male Sprague Dawley rats. Briefly, 25 μl of CFA at 1 mg/ml was injected into the plantar surface of one hind paw. Mechanical hyperalgesia was measured using the Pressure Application Measurement apparatus (Ugo Basile, Gemonio, Italy). A linearly increasing pressure was applied to an area of approximately 50 mm^2 of the plantar side of the hind paw until a behavioural response (paw withdrawal) was observed or until the pressure reached 1000 grams of force (gf). The pressure at which the behavioural response occurred was recorded as the “Paw Withdrawal Threshold” (PWT). Both CFA-injected and contralateral PWTs were determined for each rat, in each treatment group and at each time point of the studies. The measurements were performed blinded. […] Compound or vehicle (10% DMSO, 40% Solutol, 50% water for injection, vol/vol) were dosed via oral route (p.o.) once daily (QD) or twice daily (BID) during 3 days, starting before CFA injection. Data were expressed as the mean PWT for each treatment group and at each time point. PWT data were analysed by performing a two way ANOVA with repeated measures (time×treatment). Planned comparison of means (each versus vehicle) was performed by using a Dunnett's post hoc test, provided that a main effect was detected. For p values less than 0.05, the results were deemed to be statistically significant.

[3] = molecular target: T2, human P2X4 (Homo sapiens, UniProt Q99571); test: Human P2X4 HEK Cell FLIPR Assay; assay type: cell-based; details: HEK293 stably expressing human P2X4, agonist Bz-ATP 3 μM (EC80); for IC50: read-out: Human P2X4 HEK Cells (FLIPR Assay) avg IC50
T2 construct: expressed in transfected cells
T2 sequence (Q99571 1-388): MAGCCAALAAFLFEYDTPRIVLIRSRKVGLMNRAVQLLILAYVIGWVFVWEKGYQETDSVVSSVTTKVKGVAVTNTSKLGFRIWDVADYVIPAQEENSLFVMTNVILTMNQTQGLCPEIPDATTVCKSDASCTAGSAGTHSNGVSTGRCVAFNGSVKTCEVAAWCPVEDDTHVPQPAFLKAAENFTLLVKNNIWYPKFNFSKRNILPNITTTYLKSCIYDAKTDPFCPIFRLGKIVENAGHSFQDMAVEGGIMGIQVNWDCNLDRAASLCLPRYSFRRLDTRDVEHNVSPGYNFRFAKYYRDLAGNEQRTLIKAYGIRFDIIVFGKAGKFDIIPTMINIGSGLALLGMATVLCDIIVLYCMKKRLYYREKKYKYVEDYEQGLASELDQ
Method in brief: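 Compounds were preincubated 30 min at room temperature on Fluo8-AM-loaded HEK293 cells stably expressing human P2X4. The response was the calcium fluorescence rise on Bz-ATP addition.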

[4] = rat CFA, 50 mg/kg QD p.o. during 3 days
[5] = rat CFA, 100 mg/kg QD p.o. during 3 days

| SMILES | IC50 [1] [nM] | Rat P2X4 1321N1 Astrocytoma Cells (FLIPR Assay) avg Efficacy [1] [%] | PWT 2 hour-post drug [2, 4] [gf] | PWT 4 hour-post drug [2, 4] [gf] | PWT 2 hour-post drug [2, 5] [gf] | PWT 4 hour-post drug [2, 5] [gf] | pain after treatment ([2]; rat CFA, 50 and 100 mg/kg doses QD, 2 and 4 hours after last administration) | development of inflammatory pain after the injection of CFA ([2]; rat, oral administration QD during 3 days) | Human P2X4 HEK Cells (FLIPR Assay) avg Efficacy [3] [%] | IC50 [3] [nM] |
| --- | --- | --- | --- | --- | --- | --- | --- | --- | --- | --- |
| CC(=O)N(c1ccc(F)cc1)c1cc(NC(=O)Cc2cccc(F)c2Cl)ccn1 [Example 2, N-{4-[2-(2-chloro-3-fluorophenyl)acetamido]pyridin-2-yl}-N-(4-fluorophenyl)acetamide] | 358 | 95 | 727 | 688 | 763 | 839 | significantly reduced pain | prevented the development of inflammatory pain | 97 | 212 |
| CC(=O)N(c1cc(NC(=O)Cc2ccc(F)cc2Cl)ccn1)c1cccc(F)c1F [Example 123, N-{4-[2-(2-chloro-4-fluorophenyl)acetamido]pyridin-2-yl}-N-(2,3-difluorophenyl)acetamide] | 633 | 89 |  |  |  |  |  |  | 97 | 435 |
| CC(=O)N(c1cc(NC(=O)Cc2ccccc2Cl)ccn1)c1ccc(F)cc1F [Example 126, N-{4-[2-(2-chlorophenyl)acetamido]pyridin-2-yl}-N-(2,4-difluorophenyl)acetamide] | 377 | 83 |  |  |  |  |  |  | 96 | 176 |
| CC(=O)N(c1cc(NC(=O)Cc2ccc(F)cc2Cl)ccn1)c1ccc(F)cc1F [Example 127, N-{4-[2-(2-chloro-4-fluorophenyl)acetamido]pyridin-2-yl}-N-(2,4-difluorophenyl)acetamide] | 261 | 72 |  |  |  |  |  |  | 97 | 283 |
| CC(=O)N(c1cc(NC(=O)Cc2cccc(F)c2Cl)ccn1)c1ccc(F)cc1F [Example 128, N-{4-[2-(2-chloro-3-fluorophenyl)acetamido]pyridin-2-yl}-N-(2,4-difluorophenyl)acetamide] | 454 | 87 |  |  |  |  |  |  | 101 | 184 |
| CC(=O)N(c1cc(NC(=O)Cc2c(Cl)cccc2Cl)ccn1)c1ccc(F)cc1F [Example 129, N-{4-[2-(2,6-dichlorophenyl)acetamido]pyridin-2-yl}-N-(2,4-difluorophenyl)acetamide] | 212 | 96 |  |  |  |  |  |  | 104 | 197 |
| CC(=O)N(c1cc(NC(=O)Cc2c(F)cccc2Cl)ccn1)c1ccc(F)cc1F [Example 130, N-{4-[2-(2-chloro-6-fluorophenyl)acetamido]pyridin-2-yl}-N-(2,4-difluorophenyl)acetamide] | 1520 | 80 |  |  |  |  |  |  | 97 | 259 |
| CC(=O)N(c1cccc(Cl)c1)c1cc(NC(=O)Cc2ccccc2Cl)ccn1 [Example 131, N-(3-chlorophenyl)-N-{4-[2-(2-chlorophenyl)acetamido]pyridin-2-yl}acetamide] | 262 | 98 |  |  |  |  |  |  | 98 | 206 |
| CC(=O)N(c1cccc(Cl)c1)c1cc(NC(=O)Cc2ccc(F)cc2Cl)ccn1 [Example 132, N-{4-[2-(2-chloro-4-fluorophenyl)acetamido]pyridin-2-yl}-N-(3-chlorophenyl)acetamide] | 228 | 97 |  |  |  |  |  |  | 98 | 299 |
| CC(=O)N(c1cccc(Cl)c1)c1cc(NC(=O)Cc2cccc(F)c2Cl)ccn1 [Example 133, N-{4-[2-(2-chloro-3-fluorophenyl)acetamido]pyridin-2-yl}-N-(3-chlorophenyl)acetamide] | 325 | 100 |  |  |  |  |  |  | 100 | 193 |
| CC(=O)N(c1cccc(Cl)c1)c1cc(NC(=O)Cc2c(F)cccc2Cl)ccn1 [Example 135, N-{4-[2-(2-chloro-6-fluorophenyl)acetamido]pyridin-2-yl}-N-(3-chlorophenyl)acetamide] | 264 | 96 |  |  |  |  |  |  | 99 | 281 |
| CCCC(=O)N(c1ccc(F)cc1)c1cc(NC(=O)Cc2ccc(F)cc2Cl)ccn1 [Example 141, N-{4-[2-(2-chloro-4-fluorophenyl)acetamido]pyridin-2-yl}-N-(4-fluorophenyl)butanamide] | 726 | 100 |  |  |  |  |  |  | 99 | 891 |
| CCCC(=O)N(c1ccc(F)cc1)c1cc(NC(=O)Cc2c(F)cccc2Cl)ccn1 [Example 142, N-{4-[2-(2-chloro-6-fluorophenyl)acetamido]pyridin-2-yl}-N-(4-fluorophenyl)butanamide] | 767 | 98 |  |  |  |  |  |  | 86 | 796 |
| CCCC(=O)N(c1ccc(F)cc1)c1cc(NC(=O)Cc2ccccc2Cl)ccn1 [Example 143, N-{4-[2-(2-chlorophenyl)acetamido]pyridin-2-yl}-N-(4-fluorophenyl)butanamide] | 934 | 101 |  |  |  |  |  |  | 94 | 723 |
| CCCC(=O)N(c1ccc(F)cc1)c1cc(NC(=O)Cc2c(Cl)cccc2Cl)ccn1 [Example 144, N-{4-[2-(2,6-dichlorophenyl)acetamido]pyridin-2-yl}-N-(4-fluorophenyl)butanamide] | 557 | 100 |  |  |  |  |  |  | 90 | 648 |
